Data from patent US5459156A, “Imidazolyl-substituted phenylacetic acid prolinamides” (Bayer Aktiengesellschaft, priority 1993, dated 1995).

Experiments:
[1] = target: T1, Angiotensin II Receptor (Bos taurus, UniProt P25104); assay: Inhibition of the specific binding of radioactive angiotensin II to the angiotensin II receptor in membrane fractions of the adrenal gland cortex (bovine); settings: bovine adrenal gland cortex membranes; 3H-angiotensin II (3-5 nM); 60 min, room temperature; Table A
T1 construct: partially purified membrane fractions of bovine AGC using radioactive angiotensin II; from tissue; host or cells: bovine adrenal gland cortex, partially purified membrane fractions
T1 sequence (P25104 1-359): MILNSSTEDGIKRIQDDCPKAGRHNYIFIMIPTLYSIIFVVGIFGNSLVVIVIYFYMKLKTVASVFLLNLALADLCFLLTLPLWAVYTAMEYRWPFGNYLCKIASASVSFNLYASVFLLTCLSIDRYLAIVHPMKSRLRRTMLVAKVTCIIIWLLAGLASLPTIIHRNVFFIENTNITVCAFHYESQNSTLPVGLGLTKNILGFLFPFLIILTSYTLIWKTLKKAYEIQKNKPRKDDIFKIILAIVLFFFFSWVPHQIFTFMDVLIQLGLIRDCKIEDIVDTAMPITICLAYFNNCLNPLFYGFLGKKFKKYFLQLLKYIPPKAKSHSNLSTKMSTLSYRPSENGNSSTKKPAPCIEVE
Description: Interaction of the Compounds According to the Invention with the Angiotensin II Receptor in Membrane Fractions of the Adrenal Gland Cortex (Bovine)
Bovine adrenal gland cortices (AGC), which have been freshly removed and carefully freed from gland medulla, are comminuted in sucrose solution (0.32M) with the aid of an Ultra-Turrax (Janke & Kunkel, Staufen i.B.) to give a coarse membrane homogenate and partially purified in two centrifugation steps to give membrane fractions. The receptor binding investigations are carried out on partially purified membrane fractions of bovine AGC using radioactive angiotensin II in an assay volume of 0.25 ml, which specifically contains the partially purified membranes (50-80 μg), ^3 H-angiotensin II (3-5 nM), test buffer solution (50 mM Tris, pH 7.2), 5 mM MgCl2 and the substances to be investigated. After an incubation time of 60 min at room temperature, the unbound radioactivity of the samples is separated by means of moistened glass fibre filters (Whatman GF/C) and the bound radioactivity is measured spectrophotometrically in a scintillation cocktail after washing the protein with ice-cold buffer solution (50 mM Tris/HCl, pH 7.4, 5% PEG 6000). […]

[2] = test system: smooth muscle cells; assay: Inhibition of the proliferation of smooth muscle cells (3H-thymidine incorporation); format: cell-based, rats; settings: rat aorta smooth muscle cells; inhibition of thymidine incorporation produced by 10% FCS; Table B
Experimental: Investigation of the Inhibition of the Proliferation of Smooth Muscle Cells by the Compounds According to the Invention
To determine the antiprofilerative action of the compounds, smooth muscle cells are used which are obtained from aortas of rats by the media explant technique [R. Ross, J. Cell. Biol. 50, 172, 1971]. The cells are inoculated in suitable culture dishes, as a rule 96-hole plates, and cultured in 5% CO2 at 37° C. for 2-3 days in medium 199 containing 7.5% FCS and 7.5% NCS, 2 mM L-glutamine and 15 mM HEPES, pH 7.4. The cells are then synchronized by withdrawal of serum for 2-3 days and then stimulated into growth with serum or other factors. Test compounds are simultaneously added. After 16-20 hours, 1 μCi ^3 H-thymidine is added and after a further 4 hours the incorporation of this substance into the TCA-precipitatable DNA of the cells is determined. To determine the IC50 values, the active compound concentration is determined which, on sequential dilution of the active compound, causes semi-maximal inhibition of the thymidine incorporation produced by 10% FCS.

Row | SMILES | IC50 [1] | IC50 [2]
1 | CCCCc1nc(Cl)c(C(=O)O)n1Cc1ccc(C(C(=O)N2CCC[C@H]2C(N)=O)C2CCCC2)cc1 (stereo partly drawn) [Example 7, 2-[4-(2-Butyl-4-chloro-5-carboxy-imidazol-1-yl-methyl)-phenyl]-2-cyclopentylacetic acid (L-prolinamido) amide] | 580 nM | –
2 | CCCCc1nc(Cl)c(C(=O)O)n1Cc1ccc(C(C(=O)N2CCC[C@H]2C(=O)OCc2ccccc2)C2CCCC2)cc1 (stereo partly shown) [Example 12] | 290 nM | –
3 | CCCCc1nc(Cl)c(CO)n1Cc1ccc(C(C(=O)N2CCC[C@H]2C(=O)N[C@H](CO)c2ccccc2)C2CCCC2)cc1 (stereo partly drawn) [Example 9, 2-[4-(2-Butyl-4-chloro-5-hydroxymethyl-imidazol-1-yl-methyl)phenyl]-2-cyclopentylacetic acid (L-prolinephenylglycinolamido) amide] | – | 860 nM
4 | CCCCc1nc(Cl)c(CO)n1Cc1ccc(C(C(=O)N2CCC[C@H]2C(=O)OC(C)(C)C)C2CCCC2)cc1 (single isomer, unassigned) [Example 14] | – | 450 nM
